# Measurements as given in patent US20220202882A1, “EFFECT OF COMBINATION OF BIFIDOBACTERIUM AND BERBERINE ON PRE-DIABETES AND TYPE 2 DIABETES” (The Fourth Military Medical University, priority 2018, published 2022).
# Where a name gives a salt, the structure may show the parent alone.
# Tests used:
# [1] = system: pre-diabetic and type 2 diabetes mellitus patients; assay: Clinical trial: blood lipids (total cholesterol, HDL, LDL); format: in vivo, human; conditions: for Effect on total cholesterol level (in words) / High-density lipoprotein change, mean value / Post-treatment low-density lipoprotein - pre-treatment low-density lipoprotein, mean value / Post-treatment total cholesterol - pre-treatment total cholesterol, mean value: 16 weeks of treatment; for Effect on total cholesterol level (in words): Kruskal-Wilcox test; for Post-treatment low-density lipoprotein, mean value / Post-treatment total cholesterol, mean value: after 16 weeks of treatment; for Pre-treatment low-density lipoprotein, mean value / Pre-treatment total cholesterol, mean value: baseline before treatment
# Protocol: (§1) From June 2015 to October 2018, a double-blind, randomized, and parallel-controlled trial, studying the effects of the combined use of Bifidobacterium and berberine on pre-diabetic and type 2 diabetes mellitus patients, was conducted in 10 research centers in Xi'an, Yan'an and Shangluo of Shaanxi province, etc., including the First Affiliated Hospital of the Fourth Military Medical University. The trial included an enrollment stage of 2 weeks and a treatment stage of 16 weeks. After passing the first visit 1 (see V1 in Table 1), the subjects entered the enrollment stage, i.e., 2 weeks of lifestyle intervention, followed by a re-screening (see V2 in Table 1). The subjects were subjected to a 16-week course of treatment after passing the screening. See Table 1 for the detailed screening parameters. After the enrollment stage, the baseline data of the 300 successfully enrolled subjects were collected. Meanwhile, the subjects started to receive lifestyle guidance, and were randomly divided into four groups for 16 weeks of treatments. 1) Bifidobacterium group: the subjects were administered with Bifidobacterium capsules (Livzon Pharmaceutical Group Inc., batch no.: 20141013), 0.35 g/capsule, each capsule containing 50,000,000 viable bacteria (Bifidobacterium adolescentis DM8504), 2 capsules/time, 2 times/day, plus berberine placebo tablets (Northeast Pharma Group Shenyang First Pharma Co., Ltd., Lot no.: 20150101, containing 80.2% microcrystalline cellulose, 9.4% pregelatinized starch, 6.4% sodium carboxymethyl starch, 1% magnesium stearate, and 3% copovidone), 0.1 g/tablet, 5 tablets/time, 2 times/day. 2) Berberine group: the subjects were administered with berberine tablets (Northeast Pharma Group Shenyang First Pharma Co., Ltd., Lot no.: 130917, each tablet weighted 0.165 g and contained 0.1 g active berberine ingredient (berberine hydrochloride), with the same excipients as the placebo tablets), 5 tablets/time, 2 times/day, plus Bifidobacterium placebo capsules (Livzon Pharmaceutical Group Inc., Lot no.: 141001, specifically containing 0.348 g spray-dried lactose, and 0.002 g magnesium stearate), 0.35 g/capsule, 2 capsules/time, 2 times/day. 3) Combination Group: the subjects were administered with Bifidobacterium capsules, 0.35 g/capsule, each capsule containing 50,000,000 viable bacteria (B. adolescentis DM8504), 2 capsules/time, 2 times/day, plus berberine tablets, 0.1 g/tablet, each tablet containing 0.1 g active berberine ingredient (berberine hydrochloride), 5 tablets/time, 2 times/day. 4) Control group: the subjects were administered with Bifidobacteria placebo capsules, 0.35 g/capsule, 2 capsules/time, 2 times/day, plus berberine placebo tablets, 0.1 g/tablet, 5 tablets/time, 2 times/day. Bifidobacterium capsules were taken after meals and berberine tablets were taken before meals. Tests of all samples in the study were carried out in a designated laboratory with standardized criteria. Blood analysis covered hundreds of indicators including insulin, amino acids, cytokines etc. After the sample testing was finished, 1) Chi-Squared test and t-test were used to evaluate the intergroup balance of the baseline data including the demographic characteristics and pre-treatment indicators, wherein the baseline data referred to those collected at the second visit, before the formal administration, the data collected at the first visit on the enrollment stage were used instead if the data at the second visit was lacking; 2) two-way disordered CM-CH11, Kruska-Wilcox test, etc. were used for analysis and intergroup comparison of pre- and post-treatment indicators such as fasting plasma glucose (FPG), HbA1c, plasma glucose at 2 hours post OGTT (2-h PPG), blood pressure, blood lipids, body weight and BMI; 3) adverse events and hypoglycemia events were described in terms of the type, frequency and relevance with the drugs, for safety evaluation. Software SAS 9.1.3 was used for statistical analysis with all analysis processes being programmed. […]
# [2] = system: pre-diabetic and type 2 diabetes mellitus patients; assay: Clinical trial: ketone level in urine; format: in vivo, human; conditions: for Effect on urine ketone body level (in words) / Post-treatment ketone level in urine - pre-treatment ketone level in urine, mean value: 16 weeks of treatment; for Post-treatment ketone level in urine - pre-treatment ketone level in urine, mean value / Post-treatment ketone level in urine, mean value / Pre-treatment ketone level in urine, mean value: FAS; for Post-treatment ketone level in urine, mean value: after 16 weeks of treatment; for Pre-treatment ketone level in urine, mean value: baseline before treatment
# Protocol: as §1
Compound,Effect on total cholesterol level (in words) [1],"High-density lipoprotein change, mean value ([1]; FAS) [mmol/L]","Post-treatment low-density lipoprotein - pre-treatment low-density lipoprotein, mean value ([1]; FAS) [mmol/L]","Post-treatment total cholesterol - pre-treatment total cholesterol, mean value ([1]; FAS) [mmol/L]","Post-treatment low-density lipoprotein, mean value ([1]; FAS) [mmol/L]","Post-treatment total cholesterol, mean value ([1]; FAS) [mmol/L]","Pre-treatment low-density lipoprotein, mean value ([1]; FAS) [mmol/L]","Pre-treatment total cholesterol, mean value ([1]; FAS) [mmol/L]","High-density lipoprotein change, mean value ([1]; PPS) [mmol/L]",Effect on urine ketone body level (in words) [2],"Post-treatment ketone level in urine - pre-treatment ketone level in urine, mean value [2]","Post-treatment ketone level in urine, mean value [2]","Pre-treatment ketone level in urine, mean value [2]"
"COc1ccc2cc3[n+](cc2c1OC)CCc1cc2c(cc1-3)OCO2 [Berberine, berberine hydrochloride]",significantly reduce the total cholesterol level,0.00,-0.15,-0.2770,2.76,4.6400,2.99,5.0200,-0.00,not observed,0.0526,0.0513,0.0000
Bifidobacterium,did not have evident total cholesterol lowing effect,0.03,-0.00247,0.0219,2.9,4.8100,2.85,4.7600,0.03,not observed,−0.0909,0.0341,0.1100
